Read-outs that look alike come from different tables or passages of the source.
How the values were obtained:
[1] = Fuel solubility: miscibility in blends with commercial diesel; assay type: physicochemical
Excerpt: Fuel solubility is a primary concern for diesel fuel applications. Not all highly polar oxygenates have good solubility in the current commercial diesel fuels.
The engine is run stationary with regular diesel initially, after which the fuel supply is switched to the 40 vol % tBMF-diesel blend.

[2] = Oxidation stability of blend with additive free diesel fuel (NF en ISO 12205); assay type: physicochemical; conditions: 0.1 vol % blend with additive free diesel fuel
Method: Likewise, oxygenated fuel additives, certainly when containing an aldehyde functional group, often reduce the oxidation stability of the base diesel fuel. A 0.1 vol % blend of tBMF with additive free diesel fuel was prepared at an outside laboratory for oxidation stability determination according to NF en ISO 12205 certified methods.

| SMILES | miscibility with commercial diesel [1] | mixing or flocculation problems [1] | oxidation stability versus reference additive-free diesel [2] | miscibility with commercial diesel ([1]; 5 vol % blend with commercial diesel) | miscibility with commercial diesel ([1]; 25 vol % blend with commercial diesel) | miscibility with commercial diesel ([1]; 40 vol % blend with commercial diesel) |
| --- | --- | --- | --- | --- | --- | --- |
| CC(C)(C)OCc1ccc(C=O)o1 [tBMF, 5-(tert-Butoxymethyl)furfural] | completely miscible | does not yield any mixing or flocculation problems | same oxidation stability | – | – | – |
| CCOCc1ccc(C=O)o1 [EMF, ethoxymethylfurfural, reference compound] | – | – | – | completely miscible | phase separation occurs | phase separation occurs |
